Laboratory results reported in patent US20140357582A1, “DESRHAMNOSYL ACTEOSIDE-CONTAINING OLIVE EXTRACT” (SUNTORY HOLDINGS LIMITED, priority 2012, published 2014).

Columns and labels:
SD (IGS) male rats = assay: Blood antioxidative activity (FRAP and ORAC methods) in rats after oral administration; assay type: in vivo, rat; conditions: 5 mL/kg; for blood antioxidative activity after administration: 0.8 mM suspension in 0.5% CMC or olive oil, FRAP and ORAC, up to 24 hours
Method: The influence of DRA on blood antioxidative activity was evaluated using rats. The evaluation of blood antioxidative activity was performed using the FRAP and ORAC methods. The DRA and acteoside used in this evaluation were those prepared by the same procedures as in Example 2 and Preparation Example 2, respectively.
(§1) SD (IGS) male rats (6 weeks old) were purchased from Charles River Laboratories Japan, Inc. After the rats were acclimated to the test environment for one week, those rats which grew normally were subjected to testing. The rats were fasted overnight and divided into five groups each consisting of three rats. Rats were orally administered a 0.5% CMC solution (Group 1), a suspension of DRA in 0.5% CMC (0.8 mM) (Group 2), a suspension of purified acteoside in 0.5% CMC (0.8 mM) (Group 3), an olive oil solution (Nacalai Tesque, Inc.; Code No. 073-26) (Group 4), and a suspension of DRA in olive oil (0.8 mM) (Group 5), each at a dose of 5 mL/kg. Before administration and 0.5, 1, 3, 6, 9 and 24 hours after administration for Groups 1-3, or before administration and 1, 3, 6, 9 and 24 hours after administration for Groups 4-5, a blood sample was collected from the caudal vein in heparinized tube and was centrifuged (at 8,000 rpm for 10 min.) to obtain plasma sample. At a later date, plasma FRAP activity as well as the ORAC activity of the supernatants obtained after deproteinization with acetone were evaluated.

[1] = Absorption in the body: blood concentrations by LC-MS/MS after oral administration; assay type: in vivo, rat; conditions: rats; for Cmax: male, SD (IGS), rat, 4 µmol/kg, suspension in 0.5% CMC (0.8 mM), 5 mL/kg, pooled plasma, β-glucuronidase/arylsulphatase treated, read-out: maximum blood concentration (Cmax) of the administered compound itself
Method: as §1
Among the plasma samples collected for the determination of blood antioxidative activity in Example 5, some parts of those samples from Group 1 (a 0.5% CMC solution), Group 2 (a suspension of DRA in 0.5% CMC) and Group 3 (a suspension of acteoside in 0.5% CMC) were used to determine the blood concentrations of the respective samples after administration.
After equivalent amounts of the plasma samples from the three rats in each group were mixed and homogenized, 90 μL of a helix pomatia-derived β-glucuronidase/arylsulphatase/acetate buffer (pH 5.0) was added to 90 μL of the plasma mixture and incubation was conducted at 37° C. for one hour. After 900 μL of acetonitrile was added to terminate the reaction, 10 μL of an aqueous solution of 1% ascorbic acid and 10 μL of an internal standard solution were added, and the contents were mixed and centrifuged (at 15,000 rpm for 10 min.) to recover a supernatant. The recovered supernatant was concentrated under reduced pressure, dissolved again in 50% methanol, passed through a filter, and subjected to LC-MS/MS analysis to quantify acteoside, DRA, hydroxytyrosol, and coffeic acid. The amounts of acteoside, DRA, hydroxytyrosol, and coffeic acid were determined by the ratio of each of their peak areas to the peak area of hesperidin (Wako) used as an internal standard. The LC-MS/MS analysis conditions are shown below.

[2] = acteoside versus DRA; cited from earlier work
[3] = oral; cited from earlier work
[4] = suspension in 0.5% CMC, DRA versus acteoside

SMILES | blood antioxidative activity after administration (SD (IGS) male rats) | Cmax [1] | in vitro antioxidative activity, comparison [2] | absorbability when orally ingested [3] | time of earlier peak of FRAP activity after administration (SD (IGS) male rats; DRA 0.8 mM, first of bimodal peaks) | time of later peak of FRAP activity after administration (SD (IGS) male rats; DRA 0.8 mM, second of bimodal peaks) | amount absorbed in the body relative to acteoside, by AUCs of coffeic acid [1, 4] | amount absorbed in the body relative to acteoside, by AUCs of hydroxytyrosol [1, 4]
C[C@@H]1O[C@@H](O[C@@H]2[C@@H](O)[C@H](OCCc3ccc(O)c(O)c3)O[C@H](CO)[C@H]2OC(=O)/C=C/c2ccc(O)c(O)c2)[C@H](O)[C@H](O)[C@H]1O [acteoside] | little increase | < 1000 nM | more active than DRA | poor absorbability |  |  |  | 
O=C(C=Cc1ccc(O)c(O)c1)O[C@@H]1C(CO)OC(OCCc2ccc(O)c(O)c2)C(O)C1O (stereo partly shown) [DRA, desrhamnosyl acteoside] | apparent increase | < 1000 nM |  |  | 1 to 3 h | 9 h | about 13 times | about 3 times
